From patent publication US10316057B2, “Tandem facial amphiphiles” (WISCONSIN ALUMNI RESEARCH FOUNDATION, priority 2011, dated 2019)
Values joined by “and” are separate entries in the source; they are usually repeats but may differ in a detail not shown here. Equal values may be shown once. Where a name gives a salt, the structure may show the parent alone.

Experiments:
[1] = Micelle characterization by gel filtration with triple detector analysis (TDA); format: physicochemical; settings: for dn/dc, specific refractive index increment / IV, intrinsic viscosity / N, aggregation number of micelles / Rh (nm) / MMW, molecular weight of micelles / Mw/Mn, weight-averaged molecular weight divided by number-averaged molecular weight: TDA; for IV, intrinsic viscosity / N, aggregation number of micelles / Rh (nm) / MMW, molecular weight of micelles: 20 mM HEPES, 150 mM NaCl buffer; for IV, intrinsic viscosity / N, aggregation number of micelles / Rh (nm) / MMW, molecular weight of micelles / Mw/Mn, weight-averaged molecular weight divided by number-averaged molecular weight: mean ± SD; for MMW, molecular weight of micelles: TFA-1 n = 6, DDM n = 8; for Mw/Mn, weight-averaged molecular weight divided by number-averaged molecular weight: micelles; for MW of micelles in water: summary statement
Protocol: Micelles formed by DDM or by TFA-1 in pH 7.0 buffer (20 mM HEPES, 150 mM NaCl) were further characterized by gel filtration using a triple-detector system (Gatta et al., Anal. Biochem. 2010, 404, 21-29), analyzing light scattering, refractive index, and differential pressure (Table 2). In both cases the micelles are globular and monodisperse. TFA-1 micelles contain only 6 molecules, which contrasts with the ˜175 molecules in a DDM micelle. TFA-2 (R=ethyl) behaved similarly to TFA-1 (R=methyl), given the similarity in Rh, but TFA-3 (R=butyl) forms larger micelles. A related trend was observed among lipopeptides, with increasing length of the alkyl appendages leading to increasing micelle size (McGregor et al., Nat. Biotech. 2003, 21, 171-176).
The on-line SEC triple detector array (Gatta et al., Anal. Biochem. 404, 21 (2010)) (Viscotek Corporation, a Malvern Company) used for detergent analysis is composed of 1) a 660 nm differential refractometer for quantifying the concentration C (mg/mL) for all molecules according to their specific refractive index increment do/dc (mL/g) using Snell's Law of Refraction (RI signal=KRI*C*(dn/dc)/RISol), 2), a single right angle 90° static light scattering (RALS) detector for measuring the average mass M (Da) according to the Raleigh Light Scattering Equation for small molecules (LS90° signal=Mavg*RIsol^2*C*(dn/dc)^2)/KLS*Kopt, where Kopt=4*π^2/(λ^4*NA), and 3) an absolute differential viscometer (Haney, J. Appl. Polym. Sci. 30, 3023 (1985)) for measuring differential pressure (DP) and calculating intrinsic viscosity (IV; dL/g) according to Newtonian Viscosity (liquid layers) applied to tubes using Poiseulle's Law (DP signal=IV*C) and for calculating the radius of hydration Rh (nm) according to Einstein's volume of hydration equation for hard spheres (Rh=[( 3/10π)*IV*M/NA]^1/3).
The IV represents molecular shape and for proteins it can vary from 0.017 dl/g for globular shapes to 0.355 dl/g for elongated shapes to 0.499 dl/g for complete denaturation (Scheraga and Mandelkern, J. Chem. Phys. 75, 179-184 (1953); Dutta et al., J. Chromatogr. 536, 113-121 (1991); Chenal et al., J. Biol. Chem. 16, 284(3), 1781-1789 (2009)). The chromatography pump, injector, SEC column (0.75×60 cm TSK G3000 plus guard column), and TDArray are placed in a 4° C. cold box, while the buffer (degassed for more than 1 hr with stir prior use) is at room temperature (RT) to allow it to be run through a RT on-line degasser, which then runs though 3 ft of 4° C. stainless steel tubing before entering the SEC pump, injector and column. The extensive degassing insures an accurate DP measurement. With this configuration, the temperature at the detectors is 6° C. TDA buffer was 20 mM Hepes, 150 mM NaCl, […] and either 0.1 mM TFA-1 or 1 mM DDM. The refractive index of the solvent RISol was measured at 10° C. using an Anton Paar Abbemat temperature controlled refractometer at 589.2 nm. Triple detection data at every 5 Hz data point throughout the complete SEC peak were used for all analysis.
For calibration, the detector response factors KRI and KLS were measured using Ovalbumin Fraction VII (Sigma). Prior to calibration, ovalbumin was first purified by SEC (280 nm detection) at 4° C. to remove small populations of dimers and aggregates, and to insure Gaussian detector peaks for TDA calibration. Ovalbumin was solubilized at 26 mg/mL in TDA buffer at 4° C. for 10 min and clarified by centrifugation (10 min 15,000×g); collecting the top 30% of the SEC elution peak from 500 μL injections yielded monodisperse ovalbumin at 5-7 mg/mL. Ovalbumin mass was 44.3 kDa (Sigma Product Information sheet and references therein) with a 0.701 dA280nm/dc (Pace et al., Prot. Sci. 4(11), 2411-2423 (1995)) and 0.187 dn/dc (Maezawa et al., Biochem. Biophys. Acta 747, 291-297 (1983); Hayashi et al., Methods Enzymol. 172, 514-528 (1989)). […]

Bacteriorhodopsin (bR) = target: T1, Bacteriorhodopsin (bR) (Halobacterium salinarum, UniProt P02945); test: Stabilization assay for bacteriorhodopsin (absorbance at 554 nm); settings: day 20, room temperature, 0.2 wt % OTG+0.8 wt % TFA
T1 construct: extract bR from the native purple membrane; endogenous in cells
T1 sequence (P02945 14-261 limits assumed): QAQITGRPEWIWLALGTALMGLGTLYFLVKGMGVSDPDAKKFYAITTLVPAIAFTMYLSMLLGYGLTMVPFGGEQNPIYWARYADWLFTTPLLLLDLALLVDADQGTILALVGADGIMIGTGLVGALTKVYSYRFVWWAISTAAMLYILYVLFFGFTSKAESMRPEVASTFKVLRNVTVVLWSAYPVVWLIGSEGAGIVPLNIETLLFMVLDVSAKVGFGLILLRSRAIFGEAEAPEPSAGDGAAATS
Protocol: Bacteriorhodopsin (bR) has been widely employed for assessment of new amphiphiles because this membrane protein is readily available, and stability can be assessed via spectrophotometry (absorbance at 554 nm). Following standard protocols (Bazzacco et al., Biomacromolecules 2009, 10, 3317-3326), 2.0 wt % octyl-β-D-thioglucoside (OTG) was used to extract bR from the native purple membrane. After removal of insoluble debris via ultracentrifugation, the bR solution was diluted with amphiphile-containing solutions to generate samples containing 0.2 wt % OTG+0.8 wt % TFA. A control sample had OTG added to give a total of 1.0 wt %. […] Parallel studies were carried out at different amphiphile concentrations as described in Example 3 below. DDM is not efficient at bR extraction from the native membrane but extracted bR can be stable in the presence of DDM (Milder et al., Biochemistry 1991, 30, 1751-1761).
The general procedure was followed according to the reported protocol of Bazzacco et al. (Biomacromolecules 10, 3317-3326 (2009)). Frozen aliquots of purple membranes containing bR at 184 μM were thawed and solubilized by incubation with octylthioglucoside (OTG) for 24 hr at 4° C. in a dark room. For the solubilization, OTG (CMC=0.28 wt %) was used at 2.0 wt % in 10 mM sodium phosphate (pH 6.9). […] BR stability in each TFA solutions was monitored by measuring absorbance at 554 nm for 20 days.

| Compound | dn/dc, specific refractive index increment [1] [mL/g] | IV, intrinsic viscosity [1] [dL/g] | N, aggregation number of micelles [1] | Rh (nm) [1] [nm] | MMW, molecular weight of micelles [1] [Da] | Mw/Mn, weight-averaged molecular weight divided by number-averaged molecular weight [1] | MW of micelles in water [1] [kD] | bR intact (Bacteriorhodopsin (bR)) [%] |
| --- | --- | --- | --- | --- | --- | --- | --- | --- |
| CCCCCCCCCCCCO[C@@H]1O[C@H](CO)[C@@H](O[C@H]2O[C@H](CO)[C@@H](O)[C@H](O)[C@H]2O)[C@H](O)[C@H]1O [DDM, dodecyl-β-D-maltoside, reference compound] | 0.130 | 0.028 ± 0.009 | 176.4 ± 1.3 | 3.42 ± 0.04 | 89982 ± 663 | 1.01 ± 0.00 | ~90 |  |
| C[C@H](CCC(=O)N(C)CCCN(C)C(=O)CC[C@@H](C)[C@H]1CC[C@H]2[C@@H]3CC[C@@H]4C[C@H](O[C@@H]5O[C@H](CO)[C@@H](O[C@H]6O[C@H](CO)[C@@H](O)[C@H](O)[C@H]6O)[C@H](O)[C@H]5O)CC[C@]4(C)[C@H]3C[C@H](O[C@@H]3O[C@H](CO)[C@@H](O[C@H]4O[C@H](CO)[C@@H](O)[C@H](O)[C@H]4O)[C@H](O)[C@H]3O)[C@]12C)[C@H]1CC[C@H]2[C@@H]3CC[C@@H]4C[C@H](O[C@@H]5O[C@H](CO)[C@@H](O[C@H]6O[C@H](CO)[C@@H](O)[C@H](O)[C@H]6O)[C@H](O)[C@H]5O)CC[C@]4(C)[C@H]3C[C@H](O[C@@H]3O[C@H](CO)[C@@H](O[C@H]4O[C@H](CO)[C@@H](O)[C@H](O)[C@H]4O)[C@H](O)[C@H]3O)[C@]12C [TFA-1] | 0.173 | 0.036 ± 0.005 | 6 and 6.2 ± 0.07 | 1.96 ± 0.01 | 13279 ± 157 | 1.00 ± 0.00 | ~13 | ~80 |
